Test results as given in patent publication US8835472B2, “Compounds, pharmaceutical compositions and uses thereof” (Boehringer Ingelheim International GmbH, priority 2010, dated 2014).

Target: human ACC2 (Homo sapiens (Human), UniProt O00763)
Test: ACC2 assay, spectrophotometric 384 well assay (NADH-linked, coupled lactate dehydrogenase/pyruvate kinase reaction)
Assay type: biochemical
Conditions: hACC2 construct lacking the 128 N-terminal amino acids; 25° C., 340 nm over 15 minutes
Method in brief: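 Kinetic NADH-linked assay (pyruvate kinase/lactate dehydrogenase coupling) with baculovirus-expressed hACC2 missing its first 128 amino acids. Started with 500 μM ATP and 200 μM each NADH and acetyl-CoA; slope followed 15 min at 25 °C, pH 7.5. No-acetyl-CoA wells define 0%; IC50 by nonlinear regression.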

human ACC2, sequence (O00763 129-2458): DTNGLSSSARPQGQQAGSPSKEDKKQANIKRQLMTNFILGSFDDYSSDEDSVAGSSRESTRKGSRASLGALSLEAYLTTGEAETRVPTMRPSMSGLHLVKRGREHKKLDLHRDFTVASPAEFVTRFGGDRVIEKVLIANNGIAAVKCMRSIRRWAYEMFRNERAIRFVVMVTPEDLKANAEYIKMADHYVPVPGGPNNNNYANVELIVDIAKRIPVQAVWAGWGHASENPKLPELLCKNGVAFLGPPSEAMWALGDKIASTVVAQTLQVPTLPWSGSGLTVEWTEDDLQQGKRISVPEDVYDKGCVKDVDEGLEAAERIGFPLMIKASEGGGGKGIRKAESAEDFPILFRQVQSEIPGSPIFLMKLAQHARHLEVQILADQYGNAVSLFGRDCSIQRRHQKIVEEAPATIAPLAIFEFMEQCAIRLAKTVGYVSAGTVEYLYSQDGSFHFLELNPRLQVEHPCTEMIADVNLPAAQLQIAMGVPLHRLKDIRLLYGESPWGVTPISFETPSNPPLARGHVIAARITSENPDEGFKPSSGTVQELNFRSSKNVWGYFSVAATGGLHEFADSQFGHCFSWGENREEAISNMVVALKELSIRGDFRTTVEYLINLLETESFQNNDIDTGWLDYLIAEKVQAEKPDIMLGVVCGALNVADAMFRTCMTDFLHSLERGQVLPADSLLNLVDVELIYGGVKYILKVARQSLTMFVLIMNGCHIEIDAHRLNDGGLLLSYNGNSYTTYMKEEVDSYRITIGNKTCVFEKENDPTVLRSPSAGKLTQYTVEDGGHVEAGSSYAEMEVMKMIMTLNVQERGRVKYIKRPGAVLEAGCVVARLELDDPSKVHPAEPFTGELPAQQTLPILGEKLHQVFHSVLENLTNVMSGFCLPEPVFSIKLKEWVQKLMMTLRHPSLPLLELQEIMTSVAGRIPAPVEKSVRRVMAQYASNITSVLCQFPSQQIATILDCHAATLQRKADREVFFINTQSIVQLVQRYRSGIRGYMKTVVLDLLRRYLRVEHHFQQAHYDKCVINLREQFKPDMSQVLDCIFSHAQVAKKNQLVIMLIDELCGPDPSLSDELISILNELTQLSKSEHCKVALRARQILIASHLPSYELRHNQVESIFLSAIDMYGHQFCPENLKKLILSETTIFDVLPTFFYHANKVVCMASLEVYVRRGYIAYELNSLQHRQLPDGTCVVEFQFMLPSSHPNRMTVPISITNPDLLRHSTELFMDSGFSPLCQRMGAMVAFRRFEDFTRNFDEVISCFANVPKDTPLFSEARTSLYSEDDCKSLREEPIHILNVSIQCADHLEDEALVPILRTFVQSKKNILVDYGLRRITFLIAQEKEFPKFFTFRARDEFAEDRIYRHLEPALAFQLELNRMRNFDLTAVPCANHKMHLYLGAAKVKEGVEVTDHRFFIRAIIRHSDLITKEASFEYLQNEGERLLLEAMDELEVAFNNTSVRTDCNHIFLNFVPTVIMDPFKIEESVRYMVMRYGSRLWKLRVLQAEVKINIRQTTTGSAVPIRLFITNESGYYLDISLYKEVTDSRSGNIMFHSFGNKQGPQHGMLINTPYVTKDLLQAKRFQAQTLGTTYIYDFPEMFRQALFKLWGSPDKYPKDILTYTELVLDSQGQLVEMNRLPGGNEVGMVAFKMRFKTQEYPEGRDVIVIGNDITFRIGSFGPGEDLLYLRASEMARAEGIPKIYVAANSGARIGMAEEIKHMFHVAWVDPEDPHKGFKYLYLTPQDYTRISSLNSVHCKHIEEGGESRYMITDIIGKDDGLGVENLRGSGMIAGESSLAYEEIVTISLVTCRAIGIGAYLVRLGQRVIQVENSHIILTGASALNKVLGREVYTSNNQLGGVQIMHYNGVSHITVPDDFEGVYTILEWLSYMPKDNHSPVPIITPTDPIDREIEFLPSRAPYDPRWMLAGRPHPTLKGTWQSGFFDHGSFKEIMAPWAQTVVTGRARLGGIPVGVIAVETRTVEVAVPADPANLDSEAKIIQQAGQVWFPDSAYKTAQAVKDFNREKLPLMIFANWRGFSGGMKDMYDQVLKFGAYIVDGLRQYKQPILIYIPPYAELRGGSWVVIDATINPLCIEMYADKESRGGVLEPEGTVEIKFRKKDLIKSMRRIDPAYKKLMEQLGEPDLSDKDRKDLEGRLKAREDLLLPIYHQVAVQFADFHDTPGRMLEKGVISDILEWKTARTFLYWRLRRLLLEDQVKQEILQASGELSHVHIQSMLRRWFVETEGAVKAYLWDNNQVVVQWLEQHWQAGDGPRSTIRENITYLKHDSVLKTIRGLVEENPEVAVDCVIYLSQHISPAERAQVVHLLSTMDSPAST

| SMILES | IC50 |
| --- | --- |
| CC(=O)NC(C)Cc1ccc(C#Cc2cnc(NCc3ccc(C)cc3)nc2)cc1 (stereo not shown) [Example 13.79] | 110 nM |
| COc1ccccc1CNc1ncc(C#Cc2ccc(CC(C)NC(C)=O)cc2)cn1 (stereo not shown) [Example 13.80] | 480 nM |
| CCC(CC)Nc1ncc(C#Cc2ccc(CC(C)NC(C)=O)cc2)cn1 (stereo not shown) [Example 13.81] | 330 nM |
| CC(=O)NC(C)Cc1ccc(C#Cc2cnc(NCc3ccncc3)nc2)cc1 (stereo not shown) [Example 13.82] | 1200 nM |
| CC(=O)NC(C)Cc1ccc(C#Cc2cnc(NCCC(C)(C)C)nc2)cc1 (stereo not shown) [Example 13.83] | 190 nM |
| CCC(C)CNc1ncc(C#Cc2ccc(CC(C)NC(C)=O)cc2)cn1 (stereo not shown) [Example 13.84] | 1000 nM |
| C=C1CCN(c2ncc(C#Cc3ccc(CC(C)NC(C)=O)cc3)cn2)CC1 (stereo not shown) [Example 13.85] | 80 nM |
| COc1ccc(CNc2ncc(C#Cc3ccc(CC(C)NC(C)=O)cc3)cn2)cc1 (stereo not shown) [Example 13.86] | 120 nM |
| CC(=O)NC(C)Cc1ccc(C#Cc2cnc(NCCc3ccccc3)nc2)cc1 (stereo not shown) [Example 13.87] | 1000 nM |
| C[C@H](NC(=O)C1CC1)c1ccc(C#Cc2cnc(NC3CCC3)nc2)cc1 [Example 13.88] | 3100 nM |
| CC(=O)N[C@@H](C)c1ccc(C#Cc2cnc(NC3CCC3)nc2)cc1 [Example 13.89] | 1000 nM |
| CC(=O)N[C@@H](C)c1ccc(C#Cc2cnc(NC3CC3)nc2)cc1 [Example 13.90] | 960 nM |
| C[C@H](NC(=O)C1CC1)c1ccc(C#Cc2cnc(NC3CC3)nc2)cc1 [Example 13.91] | 2900 nM |
| CC(=O)N[C@@H](C)c1ccc(C#Cc2cnc(NCc3ccccc3)nc2)cc1 [Example 13.92] | 7300 nM |
| CC(=O)N[C@@H](C)c1ccc(C#Cc2cnc(N3CC4CCCC4C3)nc2)cc1 (stereo partly shown) [Example 13.93] | 270 nM |
| CC(=O)N[C@@H](C)c1ccc(C#Cc2cnc(NCCC(F)(F)F)nc2)cc1 [Example 13.94] | 3600 nM |
| CCNc1ncc(C#Cc2ccc([C@H](C)NC(C)=O)cc2)cn1 [Example 13.95] | 2800 nM |
| CSc1nccc(C#Cc2ccc(CC(C)NC(C)=O)cc2)n1 (stereo not shown) [Example 14.1, N-{1-Methyl-2-[4-(2-methylsulfanyl-pyrimidin-4-ylethynyl)-phenyl]-ethyl}acetamide] | 1200 nM |
| CCOc1ccc(C#Cc2ccc(C(C)NC(C)=O)cc2)cn1 (stereo not shown) [Example 14.2] | 5900 nM |
| CCCOc1cc(C#Cc2ccc(C(C)NC(C)=O)cc2)ccn1 (stereo not shown) [Example 14.3] | 450 nM |
| CCOc1cc(C#Cc2ccc(C(C)NC(C)=O)cc2)ncn1 (stereo not shown) [Example 14.4] | 1500 nM |
| CCCn1ccc(C#Cc2ccc(CC(C)NC(C)=O)cc2)cc1=O (stereo not shown) [Example 14.5] | 4100 nM |

| SMILES | IC50 |
| --- | --- |
| CC(=O)NC(C)Cc1ccc(C#Cc2ccc(OC3CCC3)cc2)cc1 (stereo not shown) [Example 14.6] | 120 nM |
| CC(=O)N[C@@H](C)c1ccc(C#Cc2ccc(OC3CCC3)cc2)cc1 [Example 14.7] | 70 nM |
| COc1ccc(C#Cc2ccc(CCC(C)NC(C)=O)cc2)cn1 (stereo not shown) [Example 14.8] | 1300 nM |
| CC(=O)NC(C)CCc1ccc(C#Cc2ccc(OC(C)C)cc2)cc1 (stereo not shown) [Example 14.9] | 180 nM |
| CCOc1ccc(C#Cc2ccc(CCC(C)NC(C)=O)cc2)cc1 (stereo not shown) [Example 14.10] | 100 nM |
| CCCOc1ccc(C#Cc2ccc(CCC(C)NC(C)=O)cc2)cc1 (stereo not shown) [Example 14.11] | 130 nM |
| CC(=O)NC(C)CCc1ccc(C#Cc2ccc(OCC3CC3)cc2)cc1 (stereo not shown) [Example 14.12] | 170 nM |
| CC(=O)NC(C)CCc1ccc(C#Cc2ccc(OCC(C)C)cc2)cc1 (stereo not shown) [Example 14.13] | 220 nM |
| CC(=O)NC(C)CCc1ccc(C#Cc2ccc(OC3CCCC3)cc2)cc1 (stereo not shown) [Example 14.14] | 160 nM |
| CCC(C)Oc1ccc(C#Cc2ccc(CCC(C)NC(C)=O)cc2)cc1 (stereo not shown) [Example 14.15] | 140 nM |
| CCCOc1cc(C#Cc2ccc(CCC(C)NC(C)=O)cc2)ccn1 (stereo not shown) [Example 14.16] | 120 nM |
| CC(C)COc1ccc(C#Cc2ccc(CC(C)NC(=O)C3CC3)cc2)cc1 (stereo not shown) [Example 14.17] | 510 nM |
| CC(Cc1ccc(C#Cc2ccc(OCC3CC3)cc2)cc1)NC(=O)C1CC1 (stereo not shown) [Example 14.18] | 140 nM |
| CCOc1ccc(C#Cc2ccc([C@H](C)NC(C)=O)cc2)cc1 [Example 14.19] | 190 nM |
| CC(=O)N[C@@H](C)c1ccc(C#Cc2ccc(OC(C)C)cc2)cc1 [Example 14.20] | 510 nM |
| CC(=O)NC(C)Cc1ccc(C#Cc2ccc(OCCC(C)C)nn2)cc1 (stereo not shown) [Example 14.21] | 3100 nM |
| CCCOc1cc(C#Cc2ccc([C@@H](C)NC(C)=O)cc2)ccn1 [Example 14.22] | 13400 nM |
| CCCOc1ccc(C#Cc2ccc([C@H](C)NC(C)=O)cc2)cc1 [Example 14.23] | 140 nM |
| CCCOc1cc(C#Cc2ccc([C@H](C)NC(C)=O)cc2)ccn1 [Example 14.24] | 200 nM |
| CCOc1ccc(C#Cc2ccc([C@H](C)NC(C)=O)cc2)cn1 [Example 14.25] | 1800 nM |
| CC(=O)N[C@@H](C)c1ccc(C#Cc2ccc(OCC(C)C)cc2)cc1 [Example 14.26] | 140 nM |
| CC(Cc1ccc(C#Cc2ccc(Oc3cncnc3)nc2)cc1)NC(=O)C1CC1 (stereo not shown) [Example 14.27] | 3700 nM |

| SMILES | IC50 |
| --- | --- |
| CC(C)Oc1ccc(C#Cc2ccc([C@H](C)NC(=O)C3CC3)cc2)cc1 [Example 14.28] | 3400 nM |
| CC(Cc1ccc(C#Cc2ccc(OC3CCC3)cc2)cc1)NC(=O)C1CC1 (stereo not shown) [Example 14.29] | 680 nM |
| CC(Cc1ccc(C#Cc2ccc(OC3CC3)cc2)cc1)NC(=O)C1CC1 (stereo not shown) [Example 14.30] | 150 nM |
| CCCCOc1ccc(C#Cc2ccc(CC(C)NC(=O)C3CC3)cc2)cc1 (stereo not shown) [Example 14.31] | 90 nM |
| CC(Cc1ccc(C#Cc2cccc(OC(C)C)c2)cc1)NC(=O)C1CC1 (stereo not shown) [Example 14.32] | 710 nM |
| CCC(CC)Oc1ccc(C#Cc2ccc(CC(C)NC(=O)C3CC3)cc2)cc1 (stereo not shown) [Example 14.33] | 1600 nM |
| CC(=O)NCCc1ccc(C#Cc2ccc(OCC(C)C)cc2)cc1 [Example 14.34] | 600 nM |
| CC(=O)NCCc1ccc(C#Cc2ccc(OC(C)C)cc2)cc1 [Example 14.35] | 730 nM |
| CCOc1ccc(C#Cc2ccc(CCNC(C)=O)cc2)cn1 [Example 14.36] | 2300 nM |
| CCCOc1ccc(C#Cc2ccc(CCNC(C)=O)cc2)cc1 [Example 14.37] | 170 nM |
| CC(=O)NCCc1ccc(C#Cc2ccc(Oc3ccccc3)nc2)cc1 [Example 14.38] | 1400 nM |
| CCCOc1cc(C#Cc2ccc(CCNC(C)=O)cc2)ccn1 [Example 14.39] | 1100 nM |
| CCCOc1ccc(C#Cc2ccc(CC(C)NC(=O)C3CC3)cc2)cc1 (stereo not shown) [Example 14.40] | 80 nM |
| CC(Cc1ccc(C#Cc2ccc(OC(C)C)cc2)cc1)NC(=O)C1CC1 (stereo not shown) [Example 14.41] | 440 nM |
| CC(Cc1ccc(C#Cc2ccc(Oc3ccccc3)nc2)cc1)NC(=O)C1CC1 (stereo not shown) [Example 14.43] | 360 nM |
| CCCOc1cc(C#Cc2ccc(CC(C)NC(=O)C3CC3)cc2)ccn1 (stereo not shown) [Example 14.44] | 360 nM |
| CC(Cc1ccc(C#Cc2ccc(C(C)(C)C)cc2)cc1)NC(=O)C1CC1 (stereo not shown) [Example 14.45] | 1000 nM |
| CCC(C)Oc1ccc(C#Cc2ccc(CC(C)NC(=O)C3CC3)cc2)cc1 (stereo not shown) [Example 14.46] | 210 nM |
| CC(Cc1ccc(C#Cc2ccc(OC3CCCC3)cc2)cc1)NC(=O)C1CC1 (stereo not shown) [Example 14.47] | 80 nM |
| CC(C)COc1ccc(C#Cc2ccc([C@H](C)NC(=O)C3CC3)cc2)cc1 [Example 14.48] | 580 nM |
